From patent US6893846B2, “Primers for use in detecting beta-lactamases” (priority 1998, dated 2005)
≈ marks a conversion by molar mass, not a printed value. Read-outs that look alike come from different tables or passages of the source.

Key:
[1] = test system: K. pneumoniae 225; test: Three-dimensional test (enzymatic inactivation of antibiotics); conditions: beta-lactamase-mediated hydrolysis by K. pneumoniae 225, lawn E. coli ATCC 25922
[2] = test system: E. aerogenes; test: Vitek automated susceptibility system; assay type: cell-based, Enterobacter aerogenes; conditions: the 31 selected E. aerogenes strains
Description: Among all E. aerogenes recovered from clinical specimens during an eighteen month period (September 1993 to March 1995), thirty-one E. aerogenes strains showing a resistance phenotype different from that observed with derepressed mutants normally encountered at the Hunter Holmes McGuire Medical Center, Richmond, Va. were selected for this study. The strains selected were intermediate to ceftriaxone but resistant to ceftazidime when tested with the Vitek automated susceptibility system (bioMerieux Vitek, St. Louis, Mo.). Derepressed mutants previously isolated from this center were usually resistant to both ceftriaxone and ceftazidime.

[3] = test system: E. coli HB101 transformant (17 kb plasmid); conditions: disk diffusion, Tr (17 kb) = transformant E. coli HB101
[4] = test system: K. pneumoniae 225; conditions: test drug disk around amoxicillin-clavulanate disk
[5] = test system: E. aerogenes; assay type: cell-based, Enterobacter aerogenes
Experimental: Antibiotic susceptibilities were determined by standard disk-diffusion (NCCLS Standard M2-A6) and agar-dilution (NCCLS Standard M7-A4) procedures. Disks were obtained from Becton Dickinson Microbiology Systems (Cockeysville, Md.). […] Throughout this study, results were interpreted using NCCLS criteria for disk diffusion (NCCLS M2-A6) and broth dilution (NCCLS M7-A4).

[6] = test system: E. coli; test: Agar dilution MIC, South African isolates; assay type: cell-based, Escherichia coli; conditions: tzp with tazobactam 4 μg/ml
Description: (§1) The strains were provided in response to a request for all strains of Enterobacteriaceae, lacking inducible beta-lactamases, that were intermediate or resistant to cefotaxime or ceftazidime. […]

[7] = target: single beta-lactamase in K. pneumoniae cell extracts (Klebsiella pneumoniae, UniProt P0AD64, E235K/G234S); test: Spectrophotometric hydrolysis assay on crude beta-lactamase extracts; conditions: K. pneumoniae Pit 82 extract, beta-lactamase pI 8.2; 100 μM substrate
[8] = target: single beta-lactamase in K. pneumoniae cell extracts (Escherichia coli, UniProt P62593, E102K/R162S); test: as above; conditions: K. pneumoniae Pit 16 extract, beta-lactamase pI 5.6; 100 μM substrate
[9] = target: single beta-lactamase in K. pneumoniae cell extracts (Klebsiella pneumoniae, UniProt P0AD64, G234S); test: as above; conditions: K. pneumoniae Pit 100 extract, beta-lactamase pI 7.6; 100 μM substrate
[10] = test system: K. pneumoniae 225; test: NCCLS microdilution susceptibility test; assay type: cell-based, Klebsiella pneumoniae; conditions: Klebsiella pneumoniae, 225
[11] = test system: E. coli C600N transconjugants; test: Susceptibility of transconjugants; assay type: cell-based, Escherichia coli; conditions: E. coli C600N transconjugants of E. aerogenes 187, 200, 220, 184
Experimental: Antibiotic susceptibilities were determined by standard disk-diffusion (NCCLS Standard M2-A6) and agar-dilution (NCCLS Standard M7-A4) procedures. Disks were obtained from Becton Dickinson Microbiology Systems (Cockeysville, Md.). Disk-diffusion susceptibilities to the following antibiotics were determined, ampicillin; amoxicillin clavulanic acid; aztreonam; cefazolin; cefoxitin; cefuroxime; cefotaxime; ceftriaxone; ceftazidime; cefepime; imipenem; gentamicin; trimethoprim/sulfamethoxazole and ciprofloxacin. […] The following quality control strains were run simultaneously with the test organisms Escherichia coli ATCC 25922, Pseudomonas aeruginosa ATCC 27853, and E. coli ATCC 35218. Throughout this study, results were interpreted using NCCLS criteria for disk diffusion (NCCLS M2-A6) and broth dilution (NCCLS M7-A4).
[…]. The filter paper mating technique with overnight incubation at 37° C. were performed as described previously (Philippon et al., Antimicrob. Agents Chemother., 33:1131-1136 (1989)). Transconjugants were selected on LB (Luria Bertani) agar [Difco (Detroit, Mich.)] plates containing 12 μg per ml nalidixic acid and 20 μg per ml ampicillin.

[12] = test system: E. coli C600 transconjugant; conditions: disk diffusion, Tc = transconjugate E. coli C600
[13] = test system: P. mirabilis; test: Agar dilution MIC, South African isolates; assay type: cell-based, Proteus mirabilis; conditions: 4 strains, tzp with tazobactam 4 μg/ml
Description: During a period of three months in 1993, […] strains of Klebsiella pneumoniae (13 blood, 5 burn, 7 wound, 11 tracheal isolates), 4 strains of Proteus mirabilis (all wound isolates) and 4 strains of Escherichia coli (1 blood, 1 burn, 2 wound isolates) were collected from patients at the following medical centers in South Africa: Tygerberg Hospital near Cape Town, King Edward VIII Hospital in Durban, Chris Hani Baragwanath Hospital in Soweto and Pretoria Academic Hospital in Pretoria. The strains were provided in response to a request for all strains of Enterobacteriaceae, lacking inducible beta-lactamases, that were intermediate or resistant to cefotaxime or ceftazidime. […] Therefore accurate prevalence data were not obtained.
Antibiotic susceptibility was determined by standard disk diffusion (NCCLS Standard M2-T4, 1994) and agar dilution (NCCLS Standard M7-T2, 1994) procedures. Standard powders of antimicrobial agents were kindly provided by the following companies: piperacillin and tazobactam (Lederle Laboratories, Wayne, N.J.); cefoxitin and imipenem, (Merck, Rathway, N.J.); cefotaxime, (Hoechst-Roussel Pharmaceuticals Inc., Somerville, N.J.); ceftazidime, (Glaxo Group Research Ltd., Greenford, England); aztreonam and cefepime, (Bristol-Myers Squibb, Princeton, N.J.). Disks for agar diffusion were obtained from Becton Dickinson Microbiology Systems (Cockeysville, Md.). For quality control purposes, the following quality control strains were run simultaneously with the test organisms E. coli ATCC 25922, Pseudomonas aeruginosa ATCC 27853, E. coli ATCC 35218, and Staphylococcus aureus ATCC 29213. Throughout this study, results were interpreted using NCCLS criteria for disk diffusion (NCCLS Standard M2-T4, 1994) and broth dilution (NCCLS Standard M7-T2, 1994).

[14] = target: single beta-lactamase in P. mirabilis cell extracts (Escherichia coli, UniProt P62593, E102K/R162S); test: Spectrophotometric hydrolysis assay on crude beta-lactamase extracts; conditions: P. mirabilis Pit 85 extract, beta-lactamase pI 5.6; 100 μM substrate
[15] = test system: K. pneumoniae; test: Agar dilution MIC, South African isolates; assay type: cell-based, Klebsiella pneumoniae; conditions: tzp with tazobactam 4 μg/ml
Description: as §1

[16] = target: single beta-lactamase in E. coli cell extracts (Escherichia coli, UniProt P62593, E102K/R162S); test: Spectrophotometric hydrolysis assay on crude beta-lactamase extracts; conditions: E. coli Pit 64 extract, beta-lactamase pI 5.6; 100 μM substrate
[17] = test system: K. pneumoniae 225; test: NCCLS disk diffusion assay; assay type: cell-based, Klebsiella pneumoniae; conditions: disk diffusion, Kleb 225

In the case of `CC(C)(O/N=C(\C(=O)N[C@@H]1C(=O)N2C(C(=O)[O-])=C(C[n+]3ccccc3)CS[C@H]12)c1csc(N)n1)C(=O)O` [ceftazidime], the three dimensional test [1] is reported as “positive”, the Vitek susceptibility result [2] is reported as “resistant” and the “Zone Size” value [3] is reported as 33 mm. The “clavulanate double-disk potentiation test” value [4] was “positive”, the MIC range ([5]; 1 E. aerogenes strain with Bush group 1 and group 2be (SHV-3) enzymes) was 4 mg/L (≈ 7.32 µM) and the MIC range ([5]; 1 E. aerogenes strain with Bush group 1 and group 2be (SHV-5) enzymes) was 32 mg/L (≈ 58.5 µM). The MIC range ([5]; 29 E. aerogenes strains with Bush group 1 and group 2be (SHV-4) enzymes) was 8 to 32 mg/L, the “susceptibility by MIC” value ([5]; all E. aerogenes strains) was “decreased susceptibility” and the MIC range ([6]; resistance phenotype Ec1, 3 strains) was greater than 128 mg/L. The MIC range ([6]; resistance phenotype Ec2, 1 strain) was 4 mg/L, the Hydrolysis [7] was 0.2 nmol of substrate hydrolyzed/m and the Hydrolysis [8] was 3 nmol of substrate hydrolyzed/m. The Hydrolysis [9] was 0.1 nmol of substrate hydrolyzed/m, the MIC [10] was greater than 64 mg/L and the “susceptibility after transfer of plasmids encoding SHV beta-lactamase genes” value [11] was “decreased susceptibility”. The “Zone Size” value [12] was 7 mm, the MIC range [13] was 16 to 64 mg/L and the Hydrolysis [14] was 1 nmol of substrate hydrolyzed/m. For the same compound, the MIC range ([15]; resistance phenotype Kpn1, 8 strains) was greater than 128 mg/L, the MIC range ([15]; resistance phenotype Kpn2, 28 strains) was 4 to 128 mg/L and the MIC range ([15]; resistance phenotype Kpn3 (K. pneumoniae Pit 68), 1 strain, listed as caz) was 4 mg/L. The Hydrolysis [16] was 2 nmol of substrate hydrolyzed/m and the “Zone Size” value [17] was 8 mm.
